US10106534B2 (CELGENE QUANTICEL RESEARCH, INC., priority 2014, dated 2018)

How the values were obtained:
JMJD2C = JMJD2C (Homo sapiens (Human), UniProt Q9H3R0); experiment: In vitro enzyme inhibition assay for JMJD2C activity (TR-FRET); format: biochemical
Outline: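 Baculovirus JMJD2C (AA 2-372), 0.3 nM, with 300 nM biotin-H3K9me3 peptide and 2 μM α-ketoglutarate in HEPES pH 7.3 containing Fe(II) and ascorbate, 30 min at room temperature, 11-point dilutions. H3K9me2 product by TR-FRET (Eu-antibody/streptavidin-APC, 665/615 ratio); IC50 fitted.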

JMJD3 = JMJD3 (Homo sapiens, UniProt O15054); experiment: In vitro enzyme inhibition assay for JMJD3 activity (TR-FRET); format: biochemical
Method: This assay determines the ability of a test compound to inhibit JMJD3 demethylase activity.
The enzymatic assay of JMJD3 activity is based upon Time Resolved-Fluorescence Resonance Energy Transfer (TR-FRET) detection. […] Reaction product was determined quantitatively by TR-FRET after the addition of detection reagent Phycolink Streptavidin-allophycocyanin (Prozyme) and Europium-anti-di-methylated histone H3 lysine 27 (H3K27me2) antibody (PerkinElmer) in the presence of 5 mM EDTA in LANCE detection buffer (PerkinElmer) at a final concentration of 50 nM and 1 nM, respectively.
The reaction mixture was incubated at room temperature for 30 minutes, and terminated by the addition of 6 μL of 5 mM EDTA in LANCE detection buffer containing 100 nM Phycolink Streptavidin-allophycocyanin and 2 nM Europium-anti-H3K27me2 antibody.

[1] = test system: KYSE-150 esophageal carcinoma cell line; experiment: In vitro cell-based assay: cellular proliferation via BrdU incorporation (ELISA); set-up: species or system human; details: Homo sapiens, KYSE-150, 168 hours compound incubation
Outline: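 KYSE-150 cells (JMJD2C-amplified; SMAD4 and TP53 mutant), 2,000/well, were treated after overnight attachment with an 11-point series (100 μM to 2 nM) for 168 h. Proliferation was read by BrdU ELISA (2 h labelling, anti-BrdU-peroxidase, TMB, 450 nm) and IC50 fitted.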

JMJD2C, sequence (Q9H3R0 2-372): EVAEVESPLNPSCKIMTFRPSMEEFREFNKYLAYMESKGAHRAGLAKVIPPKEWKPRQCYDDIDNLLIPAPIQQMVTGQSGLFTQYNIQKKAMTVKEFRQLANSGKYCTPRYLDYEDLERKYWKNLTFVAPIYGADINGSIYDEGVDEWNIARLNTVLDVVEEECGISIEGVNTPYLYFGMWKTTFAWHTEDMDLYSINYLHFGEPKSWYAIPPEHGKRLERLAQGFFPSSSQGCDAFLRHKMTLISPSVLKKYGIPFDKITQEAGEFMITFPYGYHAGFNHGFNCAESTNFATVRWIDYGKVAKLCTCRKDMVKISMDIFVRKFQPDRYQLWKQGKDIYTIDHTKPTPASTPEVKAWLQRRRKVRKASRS

| SMILES | IC50 (JMJD2C) | IC50 (JMJD3) | IC50 [1] |
| --- | --- | --- | --- |
| O=C(O)c1ccncc1NC[C@@H]1CCOc2cc(Sc3ccc(F)cc3)ccc21 [Example 55, 3-({[(4R)-7-[(4-fluorophenyl)sulfanyl]-3,4-dihydro-2H-1-benzopyran-4-yl]methyl}amino)pyridine-4-carboxylic acid] | 100 to 1000 nM | 1000 to 10000 nM | 100 to 1000 nM |
| CN(c1ccc(OC(F)F)cc1)c1ccc2c(c1)OCC[C@H]2CNc1cnccc1C(=O)O [Example 190, 3-({[(4R)-7-{[4-(difluoromethoxy)phenyl](methyl)amino}-3,4-dihydro-2H-1-benzopyran-4-yl]methyl}amino)pyridine-4-carboxylic acid] | 100 to 1000 nM | 1000 to 10000 nM | ≤ 100 nM |
| CN(c1ccccc1)c1ccc2c(c1)CCC[C@H]2CNc1nnccc1C(=O)O [Example 191, 3-({[(1R)-6-[methyl(phenyl)amino]-1,2,3,4-tetrahydronaphthalen-1-yl]methyl}amino)pyridazine-4-carboxylic acid] | 100 to 1000 nM | 1000 to 10000 nM | ≤ 100 nM |
| CCc1ccc(N(C)c2ccc3c(c2)OCC[C@H]3CNc2cnccc2C(=O)O)nc1 [Example 157, 3-({[(4R)-7-[(5-ethylpyridin-2-yl)(methyl)amino]-3,4-dihydro-2H-1-benzopyran-4-yl]methyl}amino)pyridine-4-carboxylic acid] | 100 to 1000 nM | 1000 to 10000 nM | ≤ 100 nM |
| O=C(O)c1ccncc1NCC1CCCc2nc(-c3ccccc3)ccc21 (stereo not drawn) [Example 25] | 100 to 1000 nM | 100 to 1000 nM | > 10000 nM |
| CC(C)c1ccc(N(C)c2ccc3c(c2)OCC[C@H]3CNc2cnccc2C(=O)O)cc1 [Example 187, 3-({[(4R)-7-{methyl[4-(propan-2-yl)phenyl]amino}-3,4-dihydro-2H-1-benzopyran-4-yl]methyl}amino)pyridine-4-carboxylic acid] | 100 to 1000 nM | 1000 to 10000 nM | ≤ 100 nM |
| CN(C)c1ccc(N(C)c2ccc3c(c2)CCC[C@H]3CNc2cnccc2C(=O)O)cc1 [Example 160, 3-({[(1R)-6-{[4-(dimethylamino)phenyl](methyl)amino}-1,2,3,4-tetrahydronaphthalen-1-yl]methyl}amino)pyridine-4-carboxylic acid] | 100 to 1000 nM | 1000 to 10000 nM | ≤ 100 nM |
| O=C(O)c1ccncc1NC[C@@H]1CCOc2cc(-c3ccsc3)ccc21 [Example 34, 3-({[(4R)-7-(thiophen-3-yl)-3,4-dihydro-2H-1-benzopyran-4-yl]methyl}amino)pyridine-4-carboxylic acid] | 100 to 1000 nM | 1000 to 10000 nM | 100 to 1000 nM |
| CN(c1ccc(F)cc1)c1ccc2c(c1)OCC[C@H]2CNc1cnccc1C(=O)O [Example 21, 3-({[(4R)-7-[(4-fluorophenyl)(methyl)amino]-3,4-dihydro-2H-1-benzopyran-4-yl]methyl}amino)pyridine-4-carboxylic acid] | 100 to 1000 nM | 1000 to 10000 nM | ≤ 100 nM |
| CN(c1ccc(N2CCC2)cc1)c1ccc2c(c1)OCC[C@H]2CNc1cnccc1C(=O)O [Example 183, 3-({[(4R)-7-{[4-(azetidin-1-yl)phenyl](methyl)amino}-3,4-dihydro-2H-1-benzopyran-4-yl]methyl}amino)pyridine-4-carboxylic acid] | 100 to 1000 nM | 1000 to 10000 nM | ≤ 100 nM |
| CN(c1cccc(F)c1)c1ccc2c(c1)OCC[C@H]2CNc1cnccc1C(=O)O [Example 20, 3-({[(4R)-7-[(3-fluorophenyl)(methyl)amino]-3,4-dihydro-2H-1-benzopyran-4-yl]methyl}amino)pyridine-4-carboxylic acid] | 100 to 1000 nM | 1000 to 10000 nM | ≤ 100 nM |
| CN(c1ccc(OC(F)F)cc1)c1ccc2c(c1)CCC[C@H]2CNc1cnccc1C(=O)O [Example 184, 3-({[(1R)-6-{[4-(difluoromethoxy)phenyl](methyl)amino}-1,2,3,4-tetrahydronaphthalen-1-yl]methyl}amino)pyridine-4-carboxylic acid] | 100 to 1000 nM | 1000 to 10000 nM | ≤ 100 nM |
| C#Cc1ccc(N(C)c2ccc3c(c2)OCC[C@H]3CNc2cnccc2C(=O)O)cc1 [Example 126, 3-({[(4R)-7-[(4-ethynylphenyl)(methyl)amino]-3,4-dihydro-2H-1-benzopyran-4-yl]methyl}amino)pyridine-4-carboxylic acid] | 100 to 1000 nM | 1000 to 10000 nM | 100 to 1000 nM |
| Cc1ccc(N(C)c2ccc3c(c2)OCC[C@H]3CNc2cnccc2C(=O)O)nc1 [Example 145, 3-({[(4R)-7-[methyl(5-methylpyridin-2-yl)amino]-3,4-dihydro-2H-1-benzopyran-4-yl]methyl}amino)pyridine-4-carboxylic acid] | ≤ 100 nM | 1000 to 10000 nM | ≤ 100 nM |
| Cc1cccc(N(C)c2ccc3c(c2)CCC[C@H]3CNc2cnccc2C(=O)O)n1 [Example 123, 3-({[(1R)-6-[methyl(6-methylpyridin-2-yl)amino]-1,2,3,4-tetrahydronaphthalen-1-yl]methyl}amino)pyridine-4-carboxylic acid] | 100 to 1000 nM | 1000 to 10000 nM | ≤ 100 nM |
| Cc1sccc1-c1ccc2c(c1)OCC[C@H]2CNc1cnccc1C(=O)O [Example 37, 3-({[(4R)-7-(2-methylthiophen-3-yl)-3,4-dihydro-2H-1-benzopyran-4-yl]methyl}amino)pyridine-4-carboxylic acid] | 1000 to 10000 nM | 1000 to 10000 nM | 100 to 1000 nM |
| Cc1noc(C)c1N(C)c1ccc2c(c1)CCC[C@H]2CNc1cnccc1C(=O)O [Example 166, 3-({[(1R)-6-[(dimethyl-1,2-oxazol-4-yl)(methyl)amino]-1,2,3,4-tetrahydronaphthalen-1-yl]methyl}amino)pyridine-4-carboxylic acid] | 100 to 1000 nM | 1000 to 10000 nM | > 10000 nM |
| CN(c1ccc(C2CCOCC2)cc1)c1ccc2c(c1)OCC[C@H]2CNc1cnccc1C(=O)O [Example 202, 3-({[(4R)-7-{methyl[4-(oxan-4-yl)phenyl]amino}-3,4-dihydro-2H-1-benzopyran-4-yl]methyl}amino)pyridine-4-carboxylic acid] | 100 to 1000 nM | 1000 to 10000 nM | ≤ 100 nM |
| COCc1ccc(N(C)c2ccc3c(c2)CCC[C@H]3CNc2cnccc2C(=O)O)cc1 [Example 164, 3-({[(1R)-6-{[4-(methoxymethyl)phenyl](methyl)amino}-1,2,3,4-tetrahydronaphthalen-1-yl]methyl}amino)pyridine-4-carboxylic acid] | 100 to 1000 nM | 1000 to 10000 nM | ≤ 100 nM |
| CCOc1ccc(N(C)c2ccc3c(c2)CCC[C@H]3CNc2cnccc2C(=O)O)cc1 [Example 185, 3-({[(1R)-6-[(4-ethoxyphenyl)(methyl)amino]-1,2,3,4-tetrahydronaphthalen-1-yl]methyl}amino)pyridine-4-carboxylic acid] | 100 to 1000 nM | 1000 to 10000 nM | ≤ 100 nM |
| CN(c1ccc(-n2ccnc2)cc1)c1ccc2c(c1)CCC[C@H]2CNc1cnccc1C(=O)O [Example 193, 3-({[(1R)-6-{[4-(1H-imidazol-1-yl)phenyl](methyl)amino}-1,2,3,4-tetrahydronaphthalen-1-yl]methyl}amino)pyridine-4-carboxylic acid] | 100 to 1000 nM | 1000 to 10000 nM | 100 to 1000 nM |
| O=C(O)c1ccncc1NCC1CCOc2cc(N3CCCc4ccccc43)ccc21 (stereo not drawn) [Example 16, 3-({[7-(1,2,3,4-tetrahydroquinolin-1-yl)-3,4-dihydro-2H-1-benzopyran-4-yl]methyl}amino)pyridine-4-carboxylic acid] | 100 to 1000 nM | 1000 to 10000 nM | 100 to 1000 nM |
| CN(c1ccc(CC(F)(F)F)cc1)c1ccc2c(c1)OCC[C@H]2CNc1cnccc1C(=O)O [Example 192, 3-({[(4R)-7-{methyl[4-(2,2,2-trifluoroethyl)phenyl]amino}-3,4-dihydro-2H-1-benzopyran-4-yl]methyl}amino)pyridine-4-carboxylic acid] | 100 to 1000 nM | 1000 to 10000 nM | ≤ 100 nM |
| Cc1ccc(N(C)c2ccc3c(c2)CCC[C@H]3CNc2cnccc2C(=O)O)cc1 [Example 140, 3-({[(1R)-6-[methyl(4-methylphenyl)amino]-1,2,3,4-tetrahydronaphthalen-1-yl]methyl}amino)pyridine-4-carboxylic acid] | 100 to 1000 nM | 1000 to 10000 nM | ≤ 100 nM |
| CN(c1ccccc1)c1ccc2c(c1)OCC[C@H]2CNc1cnccc1C(=O)O [Example 18, 3-({[(4R)-7-[methyl(phenyl)amino]-3,4-dihydro-2H-1-benzopyran-4-yl]methyl}amino)pyridine-4-carboxylic acid] | 100 to 1000 nM | 100 to 1000 nM | ≤ 100 nM |
| O=C(O)c1ccncc1NCC1CCOc2cc(-c3ccoc3)ccc21 (stereo not drawn) [Example 28, 3-({[7-(furan-3-yl)-3,4-dihydro-2H-1-benzopyran-4-yl]methyl}amino)pyridine-4-carboxylic acid] | 100 to 1000 nM | < 100 nM | 1000 to 10000 nM |
